Data set [1] in a line: Single-dose crossover pharmacokinetic study of omeprazole (40 mg) alone or with clopidogrel (150 mg) in healthy volunteers (CYP2C19 EM and PM), plasma LC-MS. Type of data set: in vivo, human. The conditions noted are these: for AUC0-∞, % increase / Cmax, % increase / E Half-life, % increase / Tmax, % increase / Cl, % increase: OMP+CLOP vs OMP alone; for half-life: read-out: E Half-life (converted). The protocol:
A group of twelve healthy volunteers were recruited for this study (divided into two groups), and written informed consent was obtained from all participants included in the study. […] Electrocardiogram, routine lab tests including hematological, kidney and liver function tests were performed for all the volunteers. They were physically examined and their medical history was also evaluated. All volunteers were non-smokers and abstained from taking any other medicine and juices in the week prior to the study. Volunteers were served standard breakfast and lunch during the study. […] This study was conducted in accordance to “World Medical Association (WMA) declaration of Helsinki-Ethical principles for medical research involving human subjects” and its amendments. The study was approved by the ethical committee, Department of Pharmacy, University of […], Pakistan. (Application number13/EC/Pharm. Ref number 12/Pharm). It was a single dose, 2-period, 2-sequence study with 14 days washout period. […] Approximately 3 mL of blood was collected from each volunteer at 0, 0.5, 1, 2, 3, 4, 6, and 8 hr after dose administration in heparinized tubes. After centrifugation, the plasma was transferred into properly labeled eppendroff tubes and stored at a temperature of -20 °C until analysis. OMP and its metabolites were extracted from the plasma using precipitation method and were analyzed using LCMS method. The mobile phase consisted of 0.1 % formic acid in acetonitrile: 0.1 % formic acid in water (40/60 v/v) using Hichrom RP18 (150 × 3.0 mm, 3 μm UK) as a stationary phase interfaced with a LTQ Orbit rap mass spectrometer. Pantoprazole was used as an internal standard (Ahmad et al., 2015[1]). Various PK parameters were calculated using the PK Solutions software. […] The AUC0-∞ was determined by trapezoidal rule. The elimination half life was determined by using first-order equation, i.e., The apparent oral clearance (CL/F) was determined by using equation, Dose/AUC0-∞. The pharmacokinetic data was interpreted statistically using SPSS software (version 16.0; SPSS, Inc, Chicago, IL). […] P < 0.05 was considered statistically significant.

The conditions of data set [2]: ref McEwen et al., 1999; cited from earlier work.
[3] abbreviates: extensive metabolizers, OMP 40 mg + CLOP 150 mg.
Setting [4] is: extensive metabolizers, OMP 40 mg alone.
[5] abbreviates: poor metabolizers, OMP 40 mg + CLOP 150 mg.
Setting [6] is: poor metabolizers, OMP 40 mg alone.
[7] abbreviates: human, plasma, oral, 40 mg, extensive metabolizers, OMP 40 mg alone.
Where [8] appears, read: human, plasma, oral, 40 mg, extensive metabolizers, OMP 40 mg alone, read-out: Tmax.
Setting [9] is: human, plasma, oral, 40 mg, poor metabolizers, OMP 40 mg alone.
Setting [10] is: human, plasma, oral, 40 mg, poor metabolizers, OMP 40 mg alone, read-out: Tmax.
Where [11] appears, read: human, plasma, oral, extensive metabolizers (n = 8), OMP 40 mg + CLOP 150 mg, single dose, plasma, read-out: Cmax.
Where [12] appears, read: human, plasma, oral, extensive metabolizers, OMP 40 mg + CLOP 150 mg.
Setting [13] is: human, plasma, oral, extensive metabolizers, OMP 40 mg + CLOP 150 mg, read-out: Tmax.
The mark [14] stands for this setting: human, plasma, oral, poor metabolizers (n = 4), OMP 40 mg + CLOP 150 mg, single dose, plasma, read-out: Cmax.
[15] abbreviates: human, plasma, oral, poor metabolizers, OMP 40 mg + CLOP 150 mg.
The mark [16] stands for this setting: human, plasma, oral, poor metabolizers, OMP 40 mg + CLOP 150 mg, read-out: Tmax.
The mark [17] stands for this setting: human, plasma, po, 40 mg, extensive metabolizers (n = 8), OMP 40 mg alone, single oral dose, plasma, read-out: Cmax.
Where [18] appears, read: human, plasma, po, 40 mg, poor metabolizers (n = 4), OMP 40 mg alone, single oral dose, plasma, read-out: Cmax.

SMILES strings stand for the structures. Read-outs that look alike come from different tables or passages of the source.

For the compound `COc1ccc2nc([S+]([O-])Cc3ncc(CO)c(OC)c3C)[nH]c2c1` (centres unmarked) [5-OH-OMP, 5-hydroxyomeprazole], the Cmax (as a rule, the highest concentration seen after dosing) in data set [1] (extensive metabolizers (n = 8), OMP 40 mg + CLOP 150 mg, single dose, plasma) is 401 ± 35 ng/mL; in data set [1] (extensive metabolizers (n = 8), OMP 40 mg alone, single oral dose, plasma), 562 ± 53 ng/mL; in data set [1] (poor metabolizers (n = 4), OMP 40 mg + CLOP 150 mg, single dose, plasma), 373 ± 32 ng/mL; in data set [1] (poor metabolizers (n = 4), OMP 40 mg alone, single oral dose, plasma) it was 407 ± 46 ng/mL. Moreover, the “AUC0-∞” value in data set [1] (setting [3]) worked out at 1615 ± 401 ng·h/mL; in data set [1] (setting [4]), 2203 ± 619 ng·h/mL; in data set [1] (setting [5]) it was 1566 ± 90 ng·h/mL; in data set [1] (setting [6]) it was 1607 ± 126 ng·h/mL. The “E Half-life” value in data set [1] (setting [3]) is 1.097 ± 0.106 h; in data set [1] (setting [4]), 1.24 ± 0.129 h; in data set [1] (setting [5]), 2.828 ± 0.188 h; in data set [1] (setting [6]), 2.588 ± 0.111 h. The Tmax (usually the time at which the peak concentration occurs) in data set [1] (setting [3]) amounted to 2.49 ± 0.281 h; in data set [1] (setting [4]) it was 2.723 ± 0.394 h; in data set [1] (setting [5]), 3.138 ± 0.251 h; in data set [1] (setting [6]), 2.988 ± 0.311 h. In addition, the results for the “AUC0-∞, % increase” value in data set [1] (extensive metabolizers) and in data set [1] (poor metabolizers) were -14.22% ± 2.80 and -1.73% ± 2.38, respectively. Besides, the “Cmax, % increase” value is given as -16.23% ± 5.8 in data set [1] (extensive metabolizers) and -4.9% ± 3.61 in data set [1] (poor metabolizers). The “E Half-life, % increase” value in data set [1] (extensive metabolizers) is -8.30% ± 6.1. Moreover, the “Tmax, % increase” value in data set [1] (extensive metabolizers) is -8.23 ± 4.3%; in data set [1] (poor metabolizers) it was 5.20% ± 4.0.
For `COC(=O)[C@H](c1ccccc1Cl)N1CCc2sccc2C1` [CLOP, clopidogrel], the oral bioavailability entry in data set [2] is given as “less than 50%”.
Regarding `COc1ccc2[nH]c([S+]([O-])Cc3ncc(C)c(OC)c3C)nc2c1` (centres unmarked) [OMP, omeprazole], the figures for the “drug metabolite ratio [AUC]OMP/5-OH-OMP” value in data set [1] (EM) and in data set [1] (PM) were 1.94 ±0.602 and 9.84 ± 4.543, respectively. The “drug metabolite ratio [AUC]OMP/OMP-S” value in data set [1] (EM) turned out to be 13.64 ± 2.711; in data set [1] (PM), 9.85 ± 4.98. Moreover, the “Cl (apparent oral clearance, Dose/AUC0-∞)” value in data set [1] (setting [3]) stood at 1.94445 ± 0.356 mL/min/kg; in data set [1] (setting [4]), 2.29722 ± 0.38992 mL/min/kg; in data set [1] (setting [5]), 0.88245 ± 0.125 mL/min/kg; in data set [1] (setting [6]), 0.97735 ± 0.144 mL/min/kg. The “AUC0-∞, % increase” value is recorded as 9.33% ± 5.13 in data set [1] (extensive metabolizers) and 4.11% ± 1.68 in data set [1] (poor metabolizers). Further, the “Cl, % increase” value was -15.42% ± 4.92 in data set [1] (extensive metabolizers) and -9.6% ± 1.72 in data set [1] (poor metabolizers). For the same compound, the entries for the “E Half-life, % increase” value in data set [1] (extensive metabolizers) and in data set [1] (poor metabolizers) were 6.31% ± 4.31 and -4.73% ± 3.06, respectively. The “Tmax, % increase” value was 0.043% ± 0.0204 in data set [1] (extensive metabolizers) and -0.78% ± 0.32 in data set [1] (poor metabolizers). The AUC(0-inf) (as a rule, the area under the concentration-time curve extrapolated to infinity) worked out at 4040 ± 282 ng·h/mL in data set [1] (setting [7]), 8820 ± 778 ng·h/mL in data set [1] (setting [9]), 4900 ± 620 ng·h/mL in data set [1] (setting [12]) and 9070 ± 861 ng·h/mL in data set [1] (setting [15]). The half-life (commonly the time in which the quantity being followed falls by half) is 1.05 ± 0.187 h in data set [1] (setting [7]), 1.58 ± 0.058 h in data set [1] (setting [9]), 1.13 ± 0.185 h in data set [1] (setting [12]) and 1.51 ± 0.049 h in data set [1] (setting [15]). The Tmax in data set [1] (setting [8]) came to 2.8 ± 0.178 h; in data set [1] (setting [10]) it was 2.99 ± 0.411 h; in data set [1] (setting [13]), 2.9 ± 0.228 h; in data set [1] (setting [16]) it was 2.98 ± 0.414 h. The Cmax turned out to be 1090 ± 146 ng/mL in data set [1] (setting [11]), 1630 ± 116 ng/mL in data set [1] (setting [14]), 890 ± 83 ng/mL in data set [1] (setting [17]) and 1410 ± 146 ng/mL in data set [1] (setting [18]). Besides, the “Cmax, % increase” value in data set [1] (poor metabolizers) is 5.46% ± 2.08.
As for `COc1ccc2nc(S(=O)(=O)Cc3ncc(C)c(OC)c3C)[nH]c2c1` [OMP-S, omeprazole sulfone], the “AUC0-∞, % increase” value is listed as 5.01% ± 1.57 in data set [1] (extensive metabolizers) and 2.32% ± 2.9 in data set [1] (poor metabolizers). In data set [1] (extensive metabolizers), the “Cmax, % increase” value is given as 8.01% ± 2.0. Moreover, the “E Half-life, % increase” value is given as 3.81% ± 1.70 in data set [1] (extensive metabolizers) and -6.08% ± 0.96 in data set [1] (poor metabolizers). The “Tmax, % increase” value in data set [1] (extensive metabolizers) is given as -2.5% ± 1.18; in data set [1] (poor metabolizers), -3.28% ± 0.60. The AUC(0-inf) was 535 ± 58 ng·h/mL in data set [1] (setting [7]), 1500 ± 118 ng·h/mL in data set [1] (setting [9]), 612 ± 70 ng·h/mL in data set [1] (setting [12]) and 1520 ± 102 ng·h/mL in data set [1] (setting [15]). Further, the half-life is 2.37 ± 0.472 h in data set [1] (setting [7]), 3.34 ± 0.438 h in data set [1] (setting [9]), 2.48 ± 0.496 h in data set [1] (setting [12]) and 3.14 ± 0.44 h in data set [1] (setting [15]). Also, the time of peak concentration (Tmax) in data set [1] (setting [8]) was 2.72 ± 0.278 h; in data set [1] (setting [10]) it was 3.06 ± 0.17 h; in data set [1] (setting [13]), 2.65 ± 0.255 h; in data set [1] (setting [16]), 3 ± 0.077 h. Further, the Cmax turned out to be 198 ± 26 ng/mL in data set [1] (setting [11]), 431 ± 56 ng/mL in data set [1] (setting [14]), 175 ± 24 ng/mL in data set [1] (setting [17]) and 444 ± 53 ng/mL in data set [1] (setting [18]).
